Broadly, the MIC is the smallest concentration in the dilution series that meets the test's criterion for growth inhibition. The MIC50 is the lowest concentration that inhibits either 50% of growth or 50% of the strains tested, depending on the study. As a reminder, the MIC90 is the lowest concentration that inhibits either 90% of growth or 90% of the strains tested, depending on the study. The term IC50 denotes the concentration that gives 50% inhibition.

The structures appear in SMILES notation. Converted amounts (≈) assume the structure as drawn.

One data set relates to E. faecium. The experiment in a line: MIC 50/90 profiling in multidrug-resistant clinical isolates. The class given is cell-based. Particulars: Enterococcus faecium. The procedure: (§1) Minimal inhibitory concentration (MIC) of the compounds in the present invention was determined using broth microdilution performed according to EUCAST guidelines (ISO20776-1:2019). S. aureus ATCC29213 and E. faecalis ATCC29212 served as quality control strains.
(§2) Activity of dehalogenil against multidrug-resistant clinical isolates of S. aureus (n=100) and Enterococcus spp. […] Compared to the standard of care (linezolid, daptomycin and tigecyclin), dehalogenil MIC90 was lowered in both pathogens by 20-40-fold with unimodal distribution indicating no pre-existing resistances.

The subject of data set [1] is clinical isolates of S. aureus. Described as above. The class given is cell-based. The settings on record: Staphylococcus aureus; S. aureus clinical isolates (n = 100). As to the method: as §1, §2
For the next data set, the system named is S. aureus USA300LAC. The experiment in a line: S. aureus blood infection (sepsis) model. The class given is in vivo, mouse (CD-1). Particulars: 60 mg/kg. As to the method: Dehalogenil was further tested in a Staphylococcus blood infection (sepsis) model, alongside linezolid as reference compound. Mice were infected using S. aureus USA300LAC (10^8 CFU/animal) and subsequently treated with a daily total of 5, 10 or 25 mg/kg SC dehalogenil, split into two doses (8 h interval, BID regimen) until 3 days post infection.
Mice were infected intravenously using S. aureus USA300LAC (10^8 CFU/mice). Compounds were administered twice daily starting day 0 until day 3, with the daily total dose indicated. Curves were compared via Mantel-Cox test (Prism), with ***: p<0.001 and **: p<0.01.

For data set [2], the system named is chloroquine-resistant P. falciparum. As to the kind of experiment: Drug sensitivity assay, asexual stages (HRP2 ELISA, 72 h). The class given is cell-based. The settings on record: Plasmodium falciparum; chloroquine-resistant P. falciparum Dd2; mean ± SD. The procedure: (§3) Drug sensitivity assays of asexual plasmodium stages were carried out as described before (doi: 10.1128/AAC.49.8.3575-3577.2005). Briefly, the drugs were distributed in a 3-fold serial dilution in 96-well plates. Synchronized ring-stage parasites were diluted to a parasitemia of 0.05% with O Rh+ erythrocytes incomplete culture medium and seeded at a hematocrit of 1.5% in a total volume of 225 μL per well. Thereafter, the plates were incubated at 5% CO2, 5% O2, at 37° C. for 72 h, then they were frozen and thawed three times. The growth inhibition of P. falciparum was measured through an enzyme-linked immunosorbent assay (ELISA) for histidine-rich protein 2 (HRP2) using a microplate reader.

Data set [3] concerns drug-sensitive P. falciparum 3D7. The description is as above. The class given is cell-based. The settings on record: Plasmodium falciparum, mean ± SD, read-out: chloroquine IC50. As to the method: as §3
Data set [4] has as its system S. aureus N315 (methicillin-resistant, MRSA). The experiment in a line: MIC testing (broth microdilution, EUCAST). The class given is cell-based. Particulars: Staphylococcus aureus, MRSA. As to the method: as §1
For orientation: Broth dilution looks for growth in wells or tubes with falling amounts of substance.

The next data set relates to S. epidermidis DSM-28765. The experiment in a line: MIC testing (broth microdilution, EUCAST). The class given is cell-based. The settings on record: Staphylococcus epidermidis, DSM28765, S. epidermidis DSM-28765; read-out: MIC S. epiderm. The procedure: as §1
For data set [5], the system named is mature gametocytes (stages IV and V). As to the kind of experiment: Activity against mature gametocytes (stage IV-V), bioluminescence assay. The class given is cell-based, P. falciparum. The settings on record: Plasmodium falciparum. The procedure:
Activity against gametocytes was determined using an in vitro bioluminescence assay as described previously (doi.org/10.1371/journal.pone.0035019).

A further data set concerns zebrafish larvae. As to the kind of experiment: Toxicity in zebrafish larvae (MTC / IC50). The class given is in vivo. The procedure: For toxicity screening, zebrafish larvae were exposed three days post fertilization and monitored for 48 h until five days post fertilization. All malformations and pathophysiological phenotypes were noted and used to determine the inhibitory concentration (IC50) of the respective derivative against zebrafish larvae. The selectivity index (SI) was then calculated using the IC50 and the MIC of either S. aureus or P. falciparum 3D7.

A further data set can be described thus: Aqueous solubility. The class given is physicochemical. As to the method:
(§4) Complementing the toxicity profiling, ADME properties of the lead dehalogenil were determined. This had not been possible for the first generation frontrunner ChB1-Epo2 or the natural product ChA because of their poor limit of detection. […] Across species (mouse, rat, human), metabolic stability is high while plasma stability is moderate. Besides, no hemolysis and no inhibition of the metabolically important enzyme CYP3A4 was observed by both dehalogenil and ChA. Plasma protein binding (PPB) is >99.4% in all species.

A short description of a further data set: Hemolysis. The class given is cell-based. As to the method: as §4
A further data set relates to CYP3A4. The experiment in a line: Inhibition of CYP3A4. The class given is in vitro ADME. As to the method: as §4
The subject of a further data set is P. falciparum. As to the kind of experiment: P. falciparum infection models, per oral. The class given is in vivo. Particulars: 50 mg/kg per oral. From the text:
(§5) In addition, standard in vitro ADME parameters cannot be uniquely determined since chlorotonil A concentrations in these assays were always below the limit of detection. […] Both compounds (chlorotonil A and B1-Epo2) could be administered at low doses intravenously, however, only when dissolved in a vehicle which is not suitable for further development as part of preclinic studies as it contained high amounts of organic solvents (10 vol. % ethanol, 5 vol. % DMSO).

Data set [6] is described as follows: Toxicity in mouse models after multiple PO dosing. The class given is in vivo. The settings on record: multiple PO dosing at 100 mg/kg.
From the text: as §5

The test system of data set [7] is mature gametocytes (stages IV and V). Particulars: stage IV-V gametocytes; cited from earlier work.
The test system of data set [8] is chloroquine-sensitive laboratory strains of Plasmodium falciparum. The settings on record: cited from earlier work.
For data set [9], the system named is chloroquine-resistant laboratory strains of Plasmodium falciparum. Particulars: cited from earlier work.
The test system of data set [10] is clinical isolates from Gabon. The settings on record: read-out: median IC50; cited from earlier work.
The subject of the next data set is Plasmodium falciparum. Particulars: cited from earlier work.
The test system of the next data set is parasitemia. The settings on record: mice, 4 day suppression test, 36-110 mg/kg oral, pilot experiments; cited from earlier work.
The conditions of data set [11]: cited from earlier work.

In the case of `CC(=O)NC[C@H]1CN(c2ccc(N3CCOCC3)c(F)c2)C(=O)O1` [linezolid], the MIC in the data set with E. faecium (read-out: MIC range) fell in the range of 0.5 to 64 µg/mL (≈ 1.48 to 190 µM). Besides, the MIC50 (against E. faecium (E. faecium (n = 98)); in data set [1]) was 4 µg/mL (≈ 11.9 µM) each time. The MIC90 with E. faecium (E. faecium (n = 98)) came out at 4 µg/mL (≈ 11.9 µM); in [1] it was 8 µg/mL (≈ 23.7 µM). In the data set on S. aureus USA300LAC, the survival entry was “survival of all animals”.

Regarding `CCN(CC)CCCC(C)Nc1ccnc2cc(Cl)ccc12` (stereo not shown) [Chloroquine], the IC50 is 226 ± 76 nM in [2] and 7.4 nM in data set [3].

Regarding `CC1=C[C@@H](C)[C@H]2[C@@H]3C(=O)C(Cl)(Cl)C(=O)[C@H](C)C(=O)O[C@@H](C)/C=C/C=C\[C@@H](C)[C@@H]3C=C[C@@H]2C1` [ChA, reference compound], the MIC (in [4]; with S. epidermidis DSM-28765) was 0.05 µg/mL (≈ 0.104 µM) throughout. Further, the IC50 was 9.5 ± 3 nM in data set [5], 9 nM in data set [8], 18 nM in data set [9] and 15.2 nM in data set [10]. Also, in the data set on zebrafish larvae (comparative studies), the “toxicity effects in zebrafish larvae models” value was “cardiotoxic, hepatotoxic and developmental toxicity effects”. The “IC50 in zebrafish larvae” value in the data set on zebrafish larvae (exposed 3 days post fertilization, monitored 48 h) was 1090 nM. Further, in the data set “Aqueous solubility”, the water solubility result is given as “poor water solubility”. In the data set “Hemolysis”, the hemolysis entry is on record as “no hemolysis”. Moreover, in the data set on CYP3A4, the “inhibition of CYP3A4” value is recorded as “no inhibition”. In the data set with P. falciparum, the “efficacy in P. falciparum infection model (cure)” value is on record as “full cure”. In addition, the “toxicity in mouse models” value in [6] was “general adverse effects, and cardio- and hepatotoxicity”. Besides, the “gametocytocidal activity compared with other tested compounds” value in data set [7] is listed as “superior activity to all other tested compounds in this assay, besides epoxomicin”. Also, the “development of resistant parasites in vitro by drug pressure” value in the data set with Plasmodium falciparum was “not possible to develop resistant parasites in vitro”. In addition, the reduced parasitemia with parasitemia was > 90%.

On to `CC[C@H](C)[C@H](NC(=O)[C@H]([C@@H](C)CC)N(C)C(C)=O)C(=O)N[C@H](C(=O)N[C@@H](CC(C)C)C(=O)[C@@]1(C)CO1)[C@@H](C)O` [epoxomicin], for which the “toxic effects in vivo” value in [11] is reported as “shows toxic effects in vivo”.

Source of the values: patent US20260335277A1, “CHLOROTONIL DERIVATIVES” (priority 2023, published 2026).
